Target: 5-hydroxytryptamine receptor 6 (Homo sapiens, UniProt P50406)
Assay: Binding affinity for human 5-hydroxytryptamine 6 receptor expressed in HEK 293 human embryonic kidney cells, [3H]-lysergic acid diethylamide as radioligand
Format: cell-based, HEK293

Sequence of 5-hydroxytryptamine receptor 6 (P50406 whole entry): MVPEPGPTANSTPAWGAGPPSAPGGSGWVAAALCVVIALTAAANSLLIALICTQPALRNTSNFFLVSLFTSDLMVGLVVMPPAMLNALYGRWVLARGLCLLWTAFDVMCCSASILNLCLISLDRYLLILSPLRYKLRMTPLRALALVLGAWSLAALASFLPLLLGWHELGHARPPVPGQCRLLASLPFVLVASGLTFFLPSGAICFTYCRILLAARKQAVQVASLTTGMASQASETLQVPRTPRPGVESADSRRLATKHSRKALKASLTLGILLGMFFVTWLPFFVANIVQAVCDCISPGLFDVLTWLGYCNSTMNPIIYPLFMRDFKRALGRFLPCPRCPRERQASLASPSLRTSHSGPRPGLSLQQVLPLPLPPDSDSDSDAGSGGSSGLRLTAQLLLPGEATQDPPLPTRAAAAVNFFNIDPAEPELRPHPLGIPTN

In order of rising Ki:
1. Cc1[nH]c2ccc(O)cc2c1CCN  46 nM
2. CCc1[nH]c2ccc(OC)cc2c1CCN(C)C  52 nM
3. COc1ccc2[nH]c(-c3ccccc3)c(CCN(C)C)c2c1  54 nM
4. COc1ccc2[nH]c(C)c(CCN(C)C)c2c1  80 nM
5. COc1ccc2[nH]c(C)c(CCN)c2c1  98 nM
6. COc1ccc2c(c1)c(CCN(C)C)cn2C(C)C  130 nM
7. CCCn1cc(CCN(C)C)c2cc(OC)ccc21  200 nM
8. CCn1cc(CCN(C)C)c2cc(OC)ccc21  240 nM
9. Cc1[nH]c2ccccc2c1CCN(C)C  300 nM
10. COc1ccc2c(c1)c(CCN(C)C)cn2C  510 nM

Target: T1, 5-hydroxytryptamine receptor 3A (Homo sapiens, UniProt P46098)
T1 sequence (P46098 whole entry): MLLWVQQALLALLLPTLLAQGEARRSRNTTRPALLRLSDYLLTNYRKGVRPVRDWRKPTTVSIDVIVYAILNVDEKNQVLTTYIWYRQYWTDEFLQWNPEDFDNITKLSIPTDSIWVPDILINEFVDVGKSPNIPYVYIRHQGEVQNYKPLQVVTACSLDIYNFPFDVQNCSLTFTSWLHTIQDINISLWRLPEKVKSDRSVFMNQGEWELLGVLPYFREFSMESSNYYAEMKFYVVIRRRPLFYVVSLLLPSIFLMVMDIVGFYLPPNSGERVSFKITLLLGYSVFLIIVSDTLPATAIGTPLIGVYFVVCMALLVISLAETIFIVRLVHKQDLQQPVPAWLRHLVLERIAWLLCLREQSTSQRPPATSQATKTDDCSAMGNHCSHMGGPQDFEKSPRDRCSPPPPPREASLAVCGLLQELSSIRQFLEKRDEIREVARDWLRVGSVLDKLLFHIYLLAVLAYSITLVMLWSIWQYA
Assay: Compound was evaluated for its binding affinity towards 5-hydroxytryptamine 3 receptor

First: Cc1[nH]c2ccc(O)cc2c1CCN
Second: COc1ccc2[nH]c(C)c(CCN)c2c1
The Ki of the first is lower: 1200 nM for the first, greater than 10000 nM for the second.

Source: ChEMBL document CHEMBL1133711 (J Med Chem, 2000)
